Consider 7 compounds from patent US20110086759A1, “CHEMICAL COMPOUNDS” (SYNGENTA CROP PROTECTION, INC., priority 2007, published 2011).

Common to all, as to assay type: in vivo
Experiment [1] concerns Alopecurus myosuroides (ALOMY). Kind of experiment: Pre-emergence biological efficacy, glasshouse pot test. The following applies: 312 h. The procedure, abridged: (§1)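 Sow seeds in pots of standard soil; after one day in the glasshouse, spray test compound (1000 or 250 g/ha) in aqueous acetone/water with 0.5% Tween 20. Grow 13 days at 24/16 °C day/night, then score damage from 0 to 100.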

Experiment [2] concerns Setaria faberi (SETFA). The experiment is described as above. The following applies: 312 h. The procedure, abridged: as §1
Experiment [3] concerns Solanum nigrum (SOLNI). The description is as above. The following applies: 312 h. The procedure, abridged: as §1
Experiment [4] deals with Ipomea hederaceae (IPOHE). Described as above. The following applies: Ipomoea hederacea, 312 h. Summed up:
as §1

Experiment [5] concerns Amaranthus retoflexus (AMARE). The description is as above. The following applies: Amaranthus retroflexus, 312 h. The procedure, abridged: as §1
In experiment [6] the test system is Echinochloa crus-galli (ECHCG). The description is as above. The following applies: 312 h. Summed up:
as §1

The subject of experiment [7] is Alopecurus myosuroides (ALOMY). Briefly: Post-emergence biological efficacy, glasshouse pot test. Conditions: 312 h. Summed up:
(§2)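 Scored 13 days after spraying on a 0 (no damage) to 100 (total damage) scale. Treatment was a post-emergence spray at 1000 or 250 g/ha, from acetone/water 50:50 plus 0.5% Tween 20, onto 8-day-old plants in soil pots. Growth at 24/16° C, 14 h photoperiod, 65% humidity, watered twice daily.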

Experiment [8] deals with Setaria faberi (SETFA). The description is as above. The following applies: 312 h. The procedure, abridged:
as §2

For experiment [9], the system named is Solanum nigrum (SOLNI). Described as above. The following applies: 312 h. Summed up:
as §2

Experiment [10] deals with Ipomea hederaceae (IPOHE). Described as above. The following applies: Ipomoea hederacea, 312 h. The procedure, abridged: as §2
The test system of experiment [11] is Amaranthus retoflexus (AMARE). The description is as above. Conditions: Amaranthus retroflexus, 312 h. Summed up:
as §2

The test system of experiment [12] is Echinochloa crus-galli (ECHCG). The experiment is described as above. Conditions: 312 h. Summed up:
as §2

Setting [13] is: pre-emergence, 1,000 g/ha, evaluated after 13 days (100=total damage; 0=no damage), read-out: Percentage damage ALOMY.
Where [14] appears, read: pre-emergence, 1,000 g/ha, evaluated after 13 days (100=total damage; 0=no damage), read-out: Percentage damage SETFA.
The mark [15] stands for this setting: pre-emergence, 1,000 g/ha, evaluated after 13 days (100=total damage; 0=no damage), read-out: Percentage damage SOLNI.
Where [16] appears, read: pre-emergence, 1,000 g/ha, evaluated after 13 days (100=total damage; 0=no damage), read-out: Percentage damage IPOHE.
Setting [17] is: pre-emergence, 1,000 g/ha, evaluated after 13 days (100=total damage; 0=no damage), read-out: Percentage damage AMARE.
Setting [18] is: pre-emergence, 1,000 g/ha, evaluated after 13 days (100=total damage; 0=no damage), read-out: Percentage damage ECHCG.
Where [19] appears, read: post-emergence, 1,000 g/ha, evaluated after 13 days (100=total damage; 0=no damage), read-out: Percentage damage caused to weed species, ALOMY.
[20] abbreviates: post-emergence, 1,000 g/ha, evaluated after 13 days (100=total damage; 0=no damage), read-out: Percentage damage caused to weed species, SETFA.
Setting [21] is: post-emergence, 1,000 g/ha, evaluated after 13 days (100=total damage; 0=no damage), read-out: Percentage damage caused to weed species, SOLNI.
Where [22] appears, read: post-emergence, 1,000 g/ha, evaluated after 13 days (100=total damage; 0=no damage), read-out: Percentage damage caused to weed species, IPOHE.
[23] abbreviates: post-emergence, 1,000 g/ha, evaluated after 13 days (100=total damage; 0=no damage), read-out: Percentage damage caused to weed species, AMARE.
Setting [24] is: post-emergence, 1,000 g/ha, evaluated after 13 days (100=total damage; 0=no damage), read-out: Percentage damage caused to weed species, ECHCG.
Setting [25] is: pre-emergence, rate 1,000 g/ha, evaluated after 13 days (100=total damage to plant; 0=no damage), read-out: Percentage damage caused to weed species, ALOMY.
Setting [26] is: pre-emergence, rate 1,000 g/ha, evaluated after 13 days (100=total damage to plant; 0=no damage), read-out: Percentage damage caused to weed species, SETFA.
Setting [27] is: pre-emergence, rate 1,000 g/ha, evaluated after 13 days (100=total damage to plant; 0=no damage), read-out: Percentage damage caused to weed species, SOLNI.
The mark [28] stands for this setting: pre-emergence, rate 1,000 g/ha, evaluated after 13 days (100=total damage to plant; 0=no damage), read-out: Percentage damage caused to weed species, IPOHE.
[29] abbreviates: pre-emergence, rate 1,000 g/ha, evaluated after 13 days (100=total damage to plant; 0=no damage), read-out: Percentage damage caused to weed species, AMARE.
Where [30] appears, read: pre-emergence, rate 1,000 g/ha, evaluated after 13 days (100=total damage to plant; 0=no damage), read-out: Percentage damage caused to weed species, ECHCG.
The mark [31] stands for this setting: Rate 1,000 g/ha, post-emergence spray, evaluated after 13 days (100=total damage to plant; 0=no damage to plant), read-out: Percentage damage caused to weed species, post-emergence, ALOMY.
Where [32] appears, read: Rate 1,000 g/ha, post-emergence spray, evaluated after 13 days (100=total damage to plant; 0=no damage to plant), read-out: Percentage damage caused to weed species, post-emergence, SETFA.
Where [33] appears, read: Rate 1,000 g/ha, post-emergence spray, evaluated after 13 days (100=total damage to plant; 0=no damage to plant), read-out: Percentage damage caused to weed species, post-emergence, SOLNI.
Setting [34] is: Rate 1,000 g/ha, post-emergence spray, evaluated after 13 days (100=total damage to plant; 0=no damage to plant), read-out: Percentage damage caused to weed species, post-emergence, IPOHE.
Setting [35] is: Rate 1,000 g/ha, post-emergence spray, evaluated after 13 days (100=total damage to plant; 0=no damage to plant), read-out: Percentage damage caused to weed species, post-emergence, AMARE.
Where [36] appears, read: Rate 1,000 g/ha, post-emergence spray, evaluated after 13 days (100=total damage to plant; 0=no damage to plant), read-out: Percentage damage caused to weed species, post-emergence, ECHCG.

As for `Cc1cccnc1CNc1nc(C2CC2)nc(C(=O)O)c1Cl` [Compound 1-153, 5-Chloro-2-cyclopropyl-4-(3-methylpyridin-2-ylmethylamino)-pyrimidine-6-carboxylic acid], the pest or weed control at 1000 g/ha in experiment [1] (setting [13]) amounted to 40%; in experiment [2] (setting [14]) it was 70%; in experiment [3] (setting [15]), 90%; in experiment [4] (setting [16]) it was 100%; in experiment [5] (setting [17]), 100%; in experiment [6] (setting [18]) it was 50%. In addition, the pest or weed control at 1000 g/ha worked out at 50% in experiment [7] (setting [19]); 90% in experiment [8] (setting [20]); 90% in experiment [9] (setting [21]); 70% in [10] (setting [22]); 100% in [11] (setting [23]); 60% in [12] (setting [24]).

Consider `COC(=O)c1nc(C2CC2)nc(NCc2ccc(F)cc2)c1Cl` [Compound 4-66, 5-Chloro-2-cyclopropyl-4-(4-fluorophenyl-methylamino)-6-methoxy-carbonylpyrimidine], for which the pest or weed control at 1000 g/ha in [1] (setting [13]) stood at 40%; in experiment [2] (setting [14]) it was 80%; in experiment [3] (setting [15]), 90%; in [4] (setting [16]), 90%; in [5] (setting [17]), 90%; in experiment [6] (setting [18]), 50%. Moreover, the pest or weed control at 1000 g/ha in experiment [7] (setting [19]) was found to be 20%; in experiment [8] (setting [20]), 90%; in [9] (setting [21]), 100%; in [10] (setting [22]) it was 100%; in experiment [11] (setting [23]), 100%; in experiment [12] (setting [24]), 70%.

Take `COC(=O)c1nc(-c2ccc(C)c(F)c2)nc(NCc2ccco2)c1Cl` [Compound 240-48, 5-Chloro-2-(3-fluoro-4-methylphenyl)-4-(furan-2-yl-methyl-amino)-6-methoxy-carbonylpyrimidine]: the pest or weed control at 1000 g/ha in experiment [1] (setting [25]) was 0%; in experiment [2] (setting [26]) it was 0%; in experiment [3] (setting [27]), 50%; in experiment [4] (setting [28]), 0%; in experiment [5] (setting [29]), 100%; in [6] (setting [30]) it was 0%. Also, the pest or weed control at 1000 g/ha in experiment [7] (setting [31]) came to 0%; in experiment [8] (setting [32]), 10%; in [9] (setting [33]) it was 30%; in [10] (setting [34]) it was 70%; in experiment [11] (setting [35]), 100%; in experiment [12] (setting [36]), 20%.

Regarding `COC(=O)c1nc(-c2ccc(C)c(Cl)c2)nc(NCc2ccco2)c1Cl` [Compound 239-48, 5-Chloro-2-(3-chloro-4-methylphenyl)-4-(furan-2-yl-methyl-amino)-6-methoxy-carbonylpyrimidine], the pest or weed control at 1000 g/ha in experiment [1] (setting [25]), in experiment [2] (setting [26]), in experiment [3] (setting [27]), in experiment [4] (setting [28]), in experiment [5] (setting [29]) and in experiment [6] (setting [30]) was 0% each time. Further, the pest or weed control at 1000 g/ha in experiment [7] (setting [31]) is 0%; in experiment [8] (setting [32]), 0%; in experiment [9] (setting [33]), 30%; in experiment [10] (setting [34]), 30%; in experiment [11] (setting [35]), 20%; in [12] (setting [36]), 0%.

Turning to `COC(=O)c1nc(C2CC2)nc(NC(c2ccccc2)c2ccc(Cl)cc2)c1Cl` (stereo not drawn) [Compound 4-278, 5-Chloro-4-[(4-chlorophenyl)-(phenyl)-methylamino]-2-cyclopropyl-6-methoxycarbonyl-pyrimidine], the pest or weed control at 1000 g/ha in experiment [1] (setting [13]) was 0%; in [2] (setting [14]), 10%; in experiment [3] (setting [15]) it was 10%; in experiment [4] (setting [16]), 20%; in experiment [5] (setting [17]), 40%; in experiment [6] (setting [18]) it was 10%. For the same compound, the pest or weed control at 1000 g/ha was determined as 10% in experiment [7] (setting [19]); 40% in [8] (setting [20]); 30% in experiment [9] (setting [21]); 60% in [10] (setting [22]); 90% in [11] (setting [23]); 20% in [12] (setting [24]).

As to `O=C(O)c1nc(C2CC2)nc(NC2CCCC2)c1Cl` [Compound 1-33, 5-Chloro-2-cyclopropyl-4-cyclopentylamino-pyrimidine-6-carboxylic acid], the pest or weed control at 1000 g/ha came to 30% in [1] (setting [13]); 50% in experiment [2] (setting [14]); 80% in [3] (setting [15]); 70% in [4] (setting [16]); 80% in experiment [5] (setting [17]); 30% in experiment [6] (setting [18]). The pest or weed control at 1000 g/ha in experiment [7] (setting [19]) was 30%; in experiment [8] (setting [20]) it was 80%; in experiment [9] (setting [21]) it was 80%; in experiment [10] (setting [22]), 70%; in experiment [11] (setting [23]), 100%; in experiment [12] (setting [24]), 20%.

For the compound `Cc1ccc(CNc2nc(C3CC3)nc(C(=O)O)c2Cl)o1` [Compound 1-135, 5-Chloro-2-cyclopropyl-4-(5-methylfuran-2-ylmethylamino)-pyrimidine-6-carboxylic acid], the pest or weed control at 1000 g/ha in experiment [1] (setting [13]) turned out to be 80%; in [2] (setting [14]), 90%; in [3] (setting [15]), 100%; in experiment [4] (setting [16]), 100%; in experiment [5] (setting [17]) it was 100%; in experiment [6] (setting [18]) it was 90%. Also, the pest or weed control at 1000 g/ha in experiment [7] (setting [19]) is 80%; in experiment [8] (setting [20]) it was 80%; in experiment [9] (setting [21]) it was 100%; in experiment [10] (setting [22]), 100%; in experiment [11] (setting [23]), 100%; in [12] (setting [24]) it was 70%.
